Experimental data taken from ChEMBL document CHEMBL1955788, “C-C bond formation at C-2 of a quinoline ring: synthesis of 2-(1H-indol-3-yl)quinoline-3-carbonitrile derivatives as a new class of PDE4 inhibitors” (Bioorg Med Chem, 2012).
The source made the active and inactive calls. The rule behind the calls is not given here.

Tests used:
[1] = biological target: T1, 3',5'-cyclic-AMP phosphodiesterase 4B (Homo sapiens, UniProt Q07343); assay: Inhibition of PDE4B expressed in HEK293 cells assessed as fold reduction in forskolin-stimulated cAMP production at 10 uM pretreated for 30 mins measured 4 hrs after forskolin challenge by luciferase reporter gene assay; type: functional, cell-based
T1 sequence (Q07343 whole entry): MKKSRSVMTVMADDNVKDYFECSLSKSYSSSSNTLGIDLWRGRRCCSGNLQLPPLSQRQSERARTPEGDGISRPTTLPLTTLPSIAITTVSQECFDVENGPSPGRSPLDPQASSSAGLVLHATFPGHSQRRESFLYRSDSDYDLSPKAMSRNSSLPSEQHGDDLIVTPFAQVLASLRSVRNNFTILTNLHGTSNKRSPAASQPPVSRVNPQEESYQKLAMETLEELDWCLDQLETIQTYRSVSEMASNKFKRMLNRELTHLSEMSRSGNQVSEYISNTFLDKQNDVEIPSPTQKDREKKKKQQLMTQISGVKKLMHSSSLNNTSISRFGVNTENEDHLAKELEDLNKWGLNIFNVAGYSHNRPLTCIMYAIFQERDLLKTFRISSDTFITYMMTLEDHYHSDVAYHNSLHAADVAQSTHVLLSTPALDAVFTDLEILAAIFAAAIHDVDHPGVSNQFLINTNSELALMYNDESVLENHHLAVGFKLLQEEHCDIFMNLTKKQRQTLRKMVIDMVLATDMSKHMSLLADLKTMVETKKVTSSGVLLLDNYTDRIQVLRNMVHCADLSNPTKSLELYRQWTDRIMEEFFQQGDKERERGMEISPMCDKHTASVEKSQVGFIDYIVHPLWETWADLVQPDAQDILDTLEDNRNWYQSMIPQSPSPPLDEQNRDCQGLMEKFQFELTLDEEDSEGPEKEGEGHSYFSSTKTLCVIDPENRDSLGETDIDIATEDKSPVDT

[2] = biological target: T1, 3',5'-cyclic-AMP phosphodiesterase 4B; assay: Inhibition of PDE4B expressed in HEK293 cells assessed as fold reduction in forskolin-stimulated cAMP production pretreated for 30 mins measured 4 hrs after forskolin challenge by luciferase reporter gene assay; type: functional, cell-based

Row | SMILES | PDE4B inhibition activity (fold reduction in cAMP) [1] | EC50 [2] [µM] | inhibition [2]
1 | Cc1ccc2nc(-c3c[nH]c4ccc(Br)cc34)c(C#N)cc2c1 | Active |  | 
2 | N#Cc1cc2ccccc2nc1-c1c[nH]c2ccc(Cl)cc12 | Active |  | 
3 | COc1ccc2[nH]cc(-c3nc4ccccc4cc3C#N)c2c1 | Active |  | 
4 | COc1ccc2c(-c3nc4ccc(C)cc4cc3C#N)c[nH]c2c1 | Active |  | 
5 | Cn1cc(-c2nc3ccccc3cc2C#N)c2ccccc21 | Active |  | 
6 | N#Cc1cc2ccccc2nc1-c1c[nH]c2cc(F)c(F)cc12 | Active |  | 
7 | N#Cc1cc2ccccc2nc1-c1c[nH]c2ccc(Br)cc12 | Active |  | 
8 | N#Cc1cc2ccccc2nc1-c1c[nH]c2ccccc12 | Active |  | 
9 | Cc1ccc2nc(-c3c[nH]c4ccccc34)c(C#N)cc2c1 | Active |  | 
10 | Cc1ccc2nc(-c3c[nH]c4ccc(Cl)cc34)c(C#N)cc2c1 | Active |  | 
11 | COc1ccc2c(-c3nc4ccccc4cc3C#N)c[nH]c2c1 | Active | 0.89 | Dose-dependent effect
12 | COc1ccc2[nH]cc(-c3nc4ccc(C)cc4cc3C#N)c2c1 | Active |  | 
